These results are taken from PubChem BioAssay AID1996.

In brackets after ≈: the same amount, converted by molar mass.

The conditions of this series: buffer; pH 7.4; 200.0 µM.
For the compound `O=C1N(c2ccccc2)C[C@@H]2C[C@@H](c3cccs3)N3CCC[C@@]123`, the solubility (kinetic) (in general, the concentration staying in solution when a stock, usually in DMSO, is diluted into the medium) was 41.8 µg/mL (≈ 129 µM).
`CC(=O)c1cccc(Nc2nc(-c3sc(C)nc3C)cs2)c1` gave a solubility (kinetic) of 1 µg/mL (≈ 3.04 µM). Compared with the last compound, the solubility kinetic is about 42-fold lower.
In turn, `O=C1CN(S(=O)(=O)c2ccccc2Cl)CCN1` came in with a solubility (kinetic) of more than 41.2 µg/mL.
`NC(=O)c1ccccc1OCC(=O)Nc1ccc2c(c1)CCC2` had a kinetic solubility of 9.5 µg/mL (≈ 30.6 µM).
Next, `CC1CCCN(C2(O)C(=O)Nc3ccc(Cl)cc32)C1` (centres undefined): more than 42.1 µg/mL.
`CC1SCC(NC(=O)c2ccc(Cl)cc2)CS1` (centres undefined) displayed a kinetic solubility of 39.2 µg/mL (≈ 136 µM).
`Cc1onc(-c2c(Cl)cccc2Cl)c1C(=O)NN1CCCCCC1` gave a solubility (kinetic) of more than 55.2 µg/mL.
Compound `CCOc1ccccc1C(=O)Nc1cccc2cccnc12` returned a kinetic solubility of less than 0.3 µg/mL.
In turn, `CCC1CCCCN1C(=O)CSc1nc(C)cc(C)n1` (centres undefined) displayed a kinetic solubility of more than 44 µg/mL.
The compound `CN(CC(=O)Nc1ccccc1C(=O)Nc1ccccc1)C1CCCCC1` had a solubility (kinetic) of 2.4 µg/mL (≈ 6.57 µM).
Next, `O=C(CC1C(=O)NCCN1Cc1cccc(F)c1)NC1CCC1` (centres undefined): 42 µg/mL (≈ 132 µM).
The compound `Brc1ccc(-c2csc(N3CCOCC3)n2)cc1` yielded a solubility (kinetic) of less than 0.3 µg/mL.
In turn, `O=C(Nc1nc2ccc(Cl)cc2s1)C1CC1` returned a kinetic solubility of 4.8 µg/mL (≈ 19 µM).
`CCOc1ccc(NC(=O)COC(=O)Cn2nc(C)c([N+](=O)[O-])c2C)cc1OCC` gave a kinetic solubility of more than 63.1 µg/mL.
`Oc1ccccc1-c1cncn1Cc1ccccc1` came in with a kinetic solubility of 11.4 µg/mL (≈ 45.5 µM).
Consider `CCOC(=O)NC(=S)Nc1ccc(C(C)(C)C)cc1`, for which the kinetic solubility is 1.1 µg/mL (≈ 3.92 µM).
In the case of `CCN(CC)CCOC(=O)C(c1ccccc1)C1CCCCC1.Cl` (centres undefined), the kinetic solubility is more than 53.1 µg/mL.
`S=C(NC1CCCCC1)NC1CC2C=CC1C2` (centres undefined) yielded a kinetic solubility of 19.5 µg/mL (≈ 77.9 µM).
Next, `COCCCn1c(=O)c2ccccc2n2c(=S)[nH]nc12`: more than 43.6 µg/mL.
On to `Br.C1=C(c2ccco2)N2CCN=C2S1`, for which the kinetic solubility was 38.8 µg/mL.
As for `O=C(Nc1cccnc1)c1ccc([N+](=O)[O-])s1`, the kinetic solubility came to 9.9 µg/mL (≈ 39.7 µM).
In the case of `Cn1c(CNC(=O)c2ccc(F)cc2)cc2ccccc21`, the solubility (kinetic) turned out to be 24.7 µg/mL (≈ 87.5 µM). This solubility kinetic is about 2.5-fold higher than that of the compound before.
For `Cc1cccc(NC(=O)c2cc3ccccc3oc2=O)c1`, the solubility (kinetic) is less than 0.6 µg/mL.
In turn, `CC(C)(C)C(=O)CSc1nc(N)cc(=O)[nH]1` registered a kinetic solubility of 33.1 µg/mL (≈ 137 µM).
Regarding `COc1ccccc1CC(=O)NCc1csc(-c2cccs2)n1`, the solubility (kinetic) came to 46 µg/mL (≈ 134 µM).
In turn, `COc1ccc(C2(C)NC(=O)N(CC(=O)NCC(=O)Nc3ccc(F)c(F)c3F)C2=O)cc1OC` (centres undefined) showed a solubility (kinetic) of 0.5 µg/mL (≈ 1.01 µM). Compared with the last compound, the solubility kinetic is about 92-fold lower.
Then `O=C(NCC1CCCO1)c1cc2c(=O)[nH]c3ccccc3c2s1` (centres undefined), with 2.6 µg/mL (≈ 7.92 µM).
In the case of `Cc1ccc(S(=O)(=O)N[C@H](C(=O)OCC(=O)NC(=O)C2CCCCC2)C(C)C)cc1`, the kinetic solubility was 11.4 µg/mL (≈ 26 µM).
Take `O=C(NCc1ccc2c(c1)OCO2)Nc1ccc(F)cc1`: the solubility (kinetic) worked out at 3.1 µg/mL (≈ 10.8 µM).
`COc1ccccc1N1CCN(C(=O)Cc2ccc(Cl)cc2)CC1` yielded a solubility (kinetic) of 50.6 µg/mL (≈ 147 µM).
Then `O=C(COC(=O)COc1ccccc1)Nc1ccc2c(c1)OCCO2`, with 15.3 µg/mL (≈ 44.6 µM); and `CC[N+](C)(CC)CCC(c1ccccc1)C1CCCCC1` (centres undefined), with 29.5 µg/mL.
Then `COCCCn1c(=S)[nH]c2sc3c(c2c1=O)CCCC3`, with more than 46.6 µg/mL; and `CC(C)(C)NC(=O)N1CCN(c2ncccc2C(F)(F)F)CC1`, with more than 49.6 µg/mL.
`COc1ccc(NC(=O)C2C3CCC(O3)C2C(=O)O)cc1OC` (centres undefined) displayed a kinetic solubility of more than 48.2 µg/mL.
Consider `O=C(Nc1cccc(C(=O)Nc2ccccc2C(=O)O)c1)c1cccc(Cl)c1`, for which the solubility (kinetic) is more than 59.2 µg/mL.
Regarding `COc1cccc(CN2CCN(Cc3cccc(F)c3)CC2)c1.O=C(O)C(=O)O`, the kinetic solubility is 46.5 µg/mL.
Then `Cc1ccc(S(=O)(=O)NC(=NC(C)C)c2ccccc2)cc1`, with more than 47.5 µg/mL; and `C=CCn1c(SCC(=O)N(C)C)nc2cc(C(=O)O)ccc2c1=O`, with more than 52.1 µg/mL.
In the case of `Cc1ccc(SCc2cn3ccccc3n2)cc1`, the solubility (kinetic) turned out to be 37 µg/mL (≈ 145 µM).
For the compound `Cc1ccnc(NC(=O)c2cc3cc(F)ccc3s2)c1`, the solubility (kinetic) came out at 5.2 µg/mL (≈ 18.2 µM). Compared with the last compound, the solubility kinetic is about 7.1-fold lower.
For the compound `Cc1ccccc1Nc1nc(N)nc(-c2oc3ccccc3c2C)n1`, the kinetic solubility turned out to be 1 µg/mL (≈ 3.02 µM).
In turn, `O=C(O)C1CCCN(S(=O)(=O)c2ccc(Br)s2)C1` (centres undefined) showed a solubility (kinetic) of 52.1 µg/mL (≈ 147 µM).
`O=C(CSc1ncnc2scc(-c3ccccc3)c12)NC1CCS(=O)(=O)C1` (centres undefined) returned a solubility (kinetic) of 58.6 µg/mL (≈ 140 µM).
Turning to `C=CCn1c(SCC(=O)Nc2cc(C)on2)nnc1-c1ccccc1OC`, the solubility (kinetic) is more than 57.8 µg/mL.
`CS(=O)(=O)N(CC(=O)N1CCN(Cc2ccccc2)CC1)c1cccc(F)c1`: the solubility (kinetic) worked out at 57.9 µg/mL (≈ 143 µM).
In the case of `CCNC(=O)NC1c2ccccc2CSc2ccccc21.O` (centres undefined), the kinetic solubility is 8.8 µg/mL.
Then `CCOC(=O)Cc1cc(=O)[nH]c(/N=C(\N)Nc2ccc(C)c(C)c2)n1`, with 2.1 µg/mL (≈ 6.12 µM); and `CC1CCN(CC(=O)Nc2ccc3c(c2)OCO3)CC1`, with more than 41.5 µg/mL.
In turn, `O=C(O)CNC(=S)N(Cc1ccc(F)cc1)C1CCCCC1` registered a solubility (kinetic) of more than 48.7 µg/mL.
Then `CCCC1Cc2nc(Cl)c(C#N)cc2CO1` (centres undefined), with more than 35.5 µg/mL; and `COc1cc(CNc2ccc(N3CCCC3)cc2)cc(Cl)c1OC`, with 9.7 µg/mL (≈ 28 µM); and `Cc1ccc(NCCC(=O)c2cccs2)cc1`, with 17.9 µg/mL (≈ 73 µM).
In turn, `O=C(O)C1C2CCC(C2)C1C(=O)NCCc1ccccc1` (centres undefined) gave a kinetic solubility of 42.9 µg/mL (≈ 149 µM).
On to `COCCCNC(=S)Nc1ccc(N2CCCCC2)cc1`, for which the kinetic solubility was more than 46.1 µg/mL.
`CCN(CC)c1c([N+](=O)[O-])c(=O)oc2ccccc12` showed a kinetic solubility of more than 39.3 µg/mL.
`Cc1cnc(NC(=O)COc2ccc3c(c2)CCC3)s1` gave a kinetic solubility of 1.2 µg/mL (≈ 4.16 µM).
On to `CC(C)Nc1nc(NC2CCCC2)nc(N2CCOCC2)n1`, for which the solubility (kinetic) is 16.3 µg/mL (≈ 53.2 µM).
Turning to `COc1ccc2c(CC(=O)OCC(=O)NC(N)=O)coc2c1`, the solubility (kinetic) amounted to 18.1 µg/mL (≈ 59.1 µM).
Turning to `N#Cc1ccc(Cn2c(-c3ccc(F)cc3)noc2=O)cc1`, the solubility (kinetic) is 37.6 µg/mL (≈ 127 µM).
`CCc1cccc(NC(=O)c2ccc3c(=O)n4c(nc3c2)CCCCC4)c1` showed a kinetic solubility of 9.2 µg/mL (≈ 25.5 µM).
In turn, `COc1ccc(C(=O)NCCNC(=O)c2ccccn2)cc1` yielded a kinetic solubility of more than 44.9 µg/mL.
As for `O=C(Cc1ccc(Cl)cc1)Nc1ncccn1`, the kinetic solubility was more than 37.2 µg/mL.
Compound `O=C(NCCCc1ccccc1)C(=O)c1c[nH]c2ccccc12` displayed a kinetic solubility of 1.2 µg/mL (≈ 3.92 µM).
Then `CCOc1ccc(CN(C)C(=O)c2cc3ccccc3o2)cc1OC`, with more than 50.9 µg/mL; and `CC(C)N(Cc1ccccc1)C(=S)Nc1cccnc1`, with more than 42.8 µg/mL; and `CC(c1nccs1)N(C)c1nc2nonc2nc1NC1CC1` (centres undefined), with 9.6 µg/mL (≈ 30.2 µM).
As to `Cc1c(C)c2ccc(OCC(=O)Nc3cccnc3)cc2oc1=O`, the solubility (kinetic) came to 1.3 µg/mL (≈ 4.01 µM). This solubility kinetic lies about 7.4-fold lower than the previous one.
The compound `Cc1cccc(C(=O)NCCNC(=O)c2cnccn2)c1` came in with a solubility (kinetic) of 38.5 µg/mL (≈ 135 µM).
`CN(c1ccc([N+](=O)[O-])cc1C(N)=O)C1CCCCC1` yielded a kinetic solubility of 38.3 µg/mL (≈ 138 µM).
As for `CCOc1cc(C(=O)NC)cc(Br)c1OC`, the solubility (kinetic) is more than 43.2 µg/mL.
Then `CSc1ccccc1NC(=O)c1ccccn1`, with 29.8 µg/mL (≈ 122 µM).
As to `COc1ccccc1N1CCN(CC(=O)NCc2ccc(Cl)cc2)CC1`, the solubility (kinetic) is more than 56.1 µg/mL.
The compound `Cc1ccc(Cl)cc1NC(=O)C1CC1c1ccccc1` (centres undefined) yielded a solubility (kinetic) of less than 0.6 µg/mL.
Next, `Cc1nc(N2CCN(c3ccccc3F)CC2)[nH]c(=O)c1C`: 14.6 µg/mL (≈ 48.3 µM); `COc1ccc(NC(=O)c2cc(S(=O)(=O)N3CCCC3)oc2C)cc1`: 2.5 µg/mL (≈ 6.86 µM).
Next, `O=C(COC(=O)c1cc(S(=O)(=O)N2CCCCC2)ccc1Cl)NC1CCS(=O)(=O)C1` (centres undefined): more than 71.8 µg/mL; `Cc1cccc(NC(=S)NC23CN4CN(CN(C4)C2)C3)c1C`: 46.8 µg/mL (≈ 147 µM).
As for `Cc1ccccc1NC(=O)COc1ccccc1C`, the kinetic solubility came to 2.1 µg/mL (≈ 8.23 µM). This solubility kinetic lies about 22-fold lower than the previous one.
Consider `Cc1cnc(NC(=O)Cc2ccc(S(=O)(=O)N3CCOCC3)s2)s1`, for which the solubility (kinetic) was determined as 19.7 µg/mL (≈ 50.8 µM). Against the preceding compound, the solubility kinetic is about 9.4-fold higher.
The compound `CCC(OC(=O)c1nsc(Cl)c1Cl)C(=O)NC(C)(C)C` (centres undefined) gave a solubility (kinetic) of 46.6 µg/mL (≈ 137 µM).
For the compound `Cc1cc(C(=O)OCC(=O)Nc2ccccc2Br)c(C)o1`, the solubility (kinetic) was found to be 4.4 µg/mL (≈ 12.5 µM).
`Cc1ccccc1OCC(=O)NC1CCCCCCC1` gave a solubility (kinetic) of 4.2 µg/mL (≈ 15.3 µM).
Next, `CNC(=O)c1cc(S(=O)(=O)NC2CCCCCC2)ccc1C`: more than 48.7 µg/mL; `CC(=O)NS(=O)(=O)c1ccc(NC(=O)c2ccc3c(c2)NC(=O)CS3)cc1`: more than 60.8 µg/mL; `COCCn1c(SCC(=O)N2CCOCC2)nnc1-c1ccco1`: more than 52.9 µg/mL.
Then `O=S(=O)(NCCc1csc(-c2ccccc2)n1)c1cccnc1`, with more than 51.8 µg/mL.
`CCc1nc2ccccc2c(C(=O)OCC(=O)N(C)Cc2ccccc2)c1C` yielded a solubility (kinetic) of 4.9 µg/mL (≈ 13 µM).
`COCCNC(=O)c1cccc2c1-c1ccccc1C2=O` yielded a solubility (kinetic) of more than 42.2 µg/mL.
In turn, `O=C(c1ccc([N+](=O)[O-])cc1)N1CCC(Cc2ccccc2)CC1` returned a kinetic solubility of 27.5 µg/mL (≈ 84.8 µM).
`N#C/C(=C\C=C\c1ccccc1)C(=O)NCc1cccnc1` returned a solubility (kinetic) of 6.3 µg/mL (≈ 21.8 µM). This solubility kinetic is about 4.4-fold lower than that of the compound before.
The compound `O=C1COc2ccc(C(=O)C[n+]3cccc(O)c3)cc2N1.[Cl-]` came in with a kinetic solubility of more than 48.1 µg/mL.
In the case of `CCN1C(=O)CSC1=Nc1cccc(C(=O)O)c1`, the solubility (kinetic) was more than 39.6 µg/mL.
Then `Clc1ccc(Cc2ccccn2)cc1`, with 6.3 µg/mL (≈ 30.9 µM).
`O=C(COc1ccc(Cl)cc1Cl)c1ccc[nH]1`: the solubility (kinetic) stood at 34.9 µg/mL (≈ 129 µM).
`S=C1NCN(Cc2cccnc2)CN1` registered a kinetic solubility of more than 31.2 µg/mL.
As for `O=C(COC(=O)c1ccccn1)Nc1ccc2c(c1)OCCO2`, the solubility (kinetic) was 44.4 µg/mL (≈ 141 µM).
Compound `Cc1cccc(OCC(=O)NCCCNC(=O)c2ccccn2)c1` registered a solubility (kinetic) of 45.4 µg/mL (≈ 139 µM). This solubility kinetic and that of the compound before are within 1.5-fold of each other.
Take `Cc1ccsc1C(=O)N1CCN(c2ncccn2)CC1`: the kinetic solubility is more than 43.3 µg/mL.
In turn, `COc1cc(C(F)(F)F)c(C(=O)NCc2cccc(Cl)c2)cn1` showed a kinetic solubility of 5.3 µg/mL (≈ 15.4 µM).
In turn, `COc1ccc2c(c1)c(C(C)=O)c(C)n2C` yielded a solubility (kinetic) of more than 32.6 µg/mL.
For `CN(C)c1cccc(C(=O)Nc2ccc(S(=O)(=O)Nc3nccs3)cc2)c1`, the solubility (kinetic) is more than 60.4 µg/mL.
Then `Cc1ccc2nc(NC(=O)COC(=O)c3ccccn3)sc2c1`, with 32.1 µg/mL (≈ 98.1 µM); and `COc1ccc(N2CC(C(=O)NC3CCCCC3)CC2=O)cc1` (centres undefined), with 25.3 µg/mL (≈ 80 µM).
